Assay results taken from patent US20060063736A1, “Compositions and methods for inhibiting mucin-type O-linked glycosylation” (priority 2004, published 2006).
Read-outs that look alike come from different tables or passages of the source.

Experiments:
Jurkat cells [1] = experiment: Annexin-V staining of Jurkat cells (apoptosis); format: cell-based, human; settings: 2 d treatment
Procedure: (§1) Jurkat cells were seeded at 250,000 cells/well (determined by Coulter cell counter) in 12-well polystyrene tissue culture plates in 1.0 mL of media and treated with various concentrations of 1-68A or 2-68A from 50 mM dimethyl sulfoxide (DMSO) stock solutions or doxorubicin or campothecin from 1 mM DMSO stock solutions. After 2 d, cells were harvested, washed twice with PBS buffer (PBS, pH 7.4, 0.1% FCS, 0.1% NaN3 w/v) and stained with FITC-HPA (1 μg/mL) or FITC-Con A (5 μg/mL with 1 mM CaCl2) in PBS, pH 7.4 in the dark for 1 h at 4° C. Cells were washed twice with PBS buffer, resuspended in 300 μL of PBS buffer and analyzed by flow cytometry (FacsCaliber, BD Instruments). Annexin-V staining was performed according to the manufacturer's protocols (Invitrogen).
(§2) To directly monitor ppGalNAcT activities in cells, Jurkat cells (human T-cell lymphoma), which are known to produce only the Tn-antigen (FIG. 1) as their O-linked glycans, were chosen. Piller et al. (1990) J. Biol. Chem. 265:9264-9271. Changes in Tn-antigen expression on the surface of Jurkat cells were monitored by HPA binding followed by flow cytometry analysis. Con A staining of N-linked glycans was used as a control for non-specific inhibition of protein glycosylation. Baenziger and Fiete (1979) J. Biol. Chem. 254:2400-2407.

mppGalNAcT-3 = target: T1, mppGalNAcT-3 (Mus musculus, UniProt P70419); experiment: ELLA for ppGalNAcTs, mppGalNAcT-3; format: biochemical, murine; settings: 20 μM UDP-GalNAc, 50 μM EA2 peptide 4
T1 construct: plasmids encoding truncated secreted ppGalNAcTs-1 to −5, -7, -10 and -11; made in house; host or cells: COS-7
T1 sequence (P70419 38-633 limits assumed): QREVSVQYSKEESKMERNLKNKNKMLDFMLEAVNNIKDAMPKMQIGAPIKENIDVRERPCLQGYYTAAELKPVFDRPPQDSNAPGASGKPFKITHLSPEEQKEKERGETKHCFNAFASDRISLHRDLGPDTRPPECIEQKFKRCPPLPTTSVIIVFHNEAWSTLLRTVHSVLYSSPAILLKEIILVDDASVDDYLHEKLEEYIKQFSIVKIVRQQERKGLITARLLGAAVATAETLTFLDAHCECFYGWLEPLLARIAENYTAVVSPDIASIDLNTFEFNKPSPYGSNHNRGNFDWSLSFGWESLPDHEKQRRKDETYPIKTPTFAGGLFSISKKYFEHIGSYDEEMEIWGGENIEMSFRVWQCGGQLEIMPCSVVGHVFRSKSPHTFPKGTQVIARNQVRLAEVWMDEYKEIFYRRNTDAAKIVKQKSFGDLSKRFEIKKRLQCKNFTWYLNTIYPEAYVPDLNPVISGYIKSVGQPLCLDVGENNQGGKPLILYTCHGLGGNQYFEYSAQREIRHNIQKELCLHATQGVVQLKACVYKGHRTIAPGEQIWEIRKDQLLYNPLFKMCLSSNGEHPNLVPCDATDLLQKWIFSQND
Procedure: COS-7 cells were transiently transfected with plasmids encoding truncated secreted ppGalNAcTs-1 to −5, -7, -10 and -11 as previously described. Hagen et al. (1997) J. Biol. Chem. 272:13843-13848. The crude conditioned medium was used as the enzyme source.
Standard reaction conditions for ppGalNAcT assays were as follows. The reaction mixture contained the following components in a final volume of 25 μL: 10 mM MnCl2, 40 mM sodium cacodylate, 40 mM β-mercaptoethanol, 0.1% Triton X-100, pH 6.5, 5 μL of conditioned media, and various concentrations of EA2 peptide 4, UDP-GalNAc and inhibitor. All uridine-based compounds were dissolved in dimethyl sulfoxide (DMSO). […] Reaction rates were linear over the period monitored (20-30 min).
96-Well NeutrAvidin-coated plates were prewashed 3 times with 200 μL of wash buffer (25 mM Tris, 150 mM NaCl, 0.1% bovine serum albumin (BSA) (w/v), and 0.05% Tween (v/v), pH 7.2). […] After 3 washes with 200 μL of PBS, bound HPA-HRP was quantified by the addition of 100 μL of TMB peroxide solution. […] HRP activity was terminated by the addition of 50 μL of 2 N H2SO4 and the resulting solution was analyzed at 450 nm using a UV/Vis microtiter plate reader. The amount of product generated by the ppGalNAcT was extrapolated from absorbance values using an equation fit to the standard curve derived from Origin 6.1 software.

Jurkat cells [2] = experiment: Con A staining of N-linked glycans on Jurkat cells, flow cytometry; format: cell-based, human; settings: 2 d treatment
Procedure: as §1, §2

Jurkat cells [3] = experiment: HPA staining of Jurkat cells (Tn-antigen), flow cytometry; format: cell-based, human; settings: Homo sapiens, 48 h, read-out: EC50 of inhibition of HPA staining
Procedure: as §1, §2

[4] = target: T2, UDP-GlcNAc/GalNAc C4-epimerase (Homo sapiens, UniProt Q14376); settings: Winans and Bertozzi (2002); cited from earlier work
T2 sequence (Q14376 1-348): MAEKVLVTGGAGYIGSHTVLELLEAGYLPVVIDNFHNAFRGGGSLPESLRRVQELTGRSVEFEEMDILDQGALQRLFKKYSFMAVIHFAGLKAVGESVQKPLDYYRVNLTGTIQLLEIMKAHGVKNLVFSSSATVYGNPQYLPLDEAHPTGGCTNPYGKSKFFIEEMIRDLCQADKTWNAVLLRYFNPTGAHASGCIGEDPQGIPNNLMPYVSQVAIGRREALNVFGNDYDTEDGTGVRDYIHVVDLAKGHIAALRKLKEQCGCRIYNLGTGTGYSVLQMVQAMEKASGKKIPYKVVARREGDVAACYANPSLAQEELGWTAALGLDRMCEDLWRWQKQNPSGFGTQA

Structure (SMILES) | Annexin-V staining (induction of apoptosis) (Jurkat cells [1]) | IC50 (mppGalNAcT-3) [µM] | effect on Con A staining (Jurkat cells [2]) | EC50 (Jurkat cells [3]; Jurkat cells, 2 d treatment) [µM] | identified in library screen against UDP-GlcNAc/GalNAc C4-epimerase [4] | EC50 (Jurkat cells [3]; Jurkat) [µM]
O=c1ccn([C@@H]2O[C@H](CON=Cc3ccc(O)c(O)c3O)[C@@H](O)[C@H]2O)c(=O)[nH]1 [1-68A] | confirmed the induction of apoptosis | 40 ± 2 | no significant effect | ~80 | not identified | –
O=C(CON=Cc1ccc(O)c(O)c1O)NC[C@H]1O[C@@H](n2ccc(=O)[nH]c2=O)[C@H](O)[C@@H]1O [2-68A] | confirmed the induction of apoptosis | 38 ± 4 | no significant effect | – | not identified | ~80
